Experiment [1] addresses T1, human sphingosine-1-phosphate receptor 1 (S1P1) (Homo sapiens (Human), UniProt P21453). As to the kind of experiment: β-Arrestin2 recruitment assay (PathHunter), S1P1 CHO-K1 cells. The following applies: for Emax: CHO-K1, efficacy (SPAN) normalized to fingolimod, read-out: hS1P1 B-arrestin2 SPAN. The experiment is classed as cell-based. Summed up: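 Enzyme-fragment complementation read-out: agonist-driven β-arrestin2 binding to ProLink-tagged human S1P1 in stable CHO-K1 cells restores β-galactosidase, measured 1 h at room temperature after a 60 min 37° C. compound incubation. Potency as pEC50, efficacy relative to fingolimod (SPAN).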
Target sequence in this assay (P21453 whole entry, looked up, the tested form may be a part): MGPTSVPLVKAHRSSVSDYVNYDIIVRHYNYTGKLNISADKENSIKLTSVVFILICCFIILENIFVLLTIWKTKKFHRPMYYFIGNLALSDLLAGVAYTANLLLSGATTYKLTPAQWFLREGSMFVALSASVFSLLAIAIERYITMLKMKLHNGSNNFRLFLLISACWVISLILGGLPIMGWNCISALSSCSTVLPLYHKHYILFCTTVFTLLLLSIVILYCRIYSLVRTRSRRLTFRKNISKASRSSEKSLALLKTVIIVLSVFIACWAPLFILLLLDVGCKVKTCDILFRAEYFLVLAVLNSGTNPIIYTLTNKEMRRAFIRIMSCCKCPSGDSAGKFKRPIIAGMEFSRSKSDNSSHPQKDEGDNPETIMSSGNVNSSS
Target sequence in this assay (P32121 whole entry partner, looked up, the tested form may be a part): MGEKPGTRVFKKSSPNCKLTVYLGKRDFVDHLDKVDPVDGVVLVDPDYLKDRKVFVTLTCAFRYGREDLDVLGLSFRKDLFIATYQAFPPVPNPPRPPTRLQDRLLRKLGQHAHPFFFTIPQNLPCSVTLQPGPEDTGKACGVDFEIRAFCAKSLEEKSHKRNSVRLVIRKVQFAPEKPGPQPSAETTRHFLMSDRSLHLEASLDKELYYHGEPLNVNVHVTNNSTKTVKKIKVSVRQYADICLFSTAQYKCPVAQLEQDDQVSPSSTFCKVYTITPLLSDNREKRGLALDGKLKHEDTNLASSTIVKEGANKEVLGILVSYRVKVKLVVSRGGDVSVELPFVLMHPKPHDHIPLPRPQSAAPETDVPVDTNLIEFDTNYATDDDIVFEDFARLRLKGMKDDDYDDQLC

In experiment [2] the target is T1, human sphingosine-1-phosphate receptor 1 (S1P1). As to the kind of experiment: Inhibition of cAMP production (HTRF cAMP HiRange), S1P1 CHO-K1 cells. The experiment is classed as cell-based. The following applies: for Emax: CHO-K1, efficacy (SPAN) normalized to fingolimod, read-out: hS1P1 cAMP SPAN. Summed up:
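CHO-K1 cells stably co-expressing human S1P1 (C-terminal Prolink tag) and EA-β-arrestin2 were grown in AssayComplete Media 6 at 37° C. and 5% CO2, plated, and incubated overnight. Agonist-driven inhibition of intracellular cAMP was read by TR-FRET with the HTRF cAMP HiRange kit on a PheraStar reader. Potency is pEC50, and efficacy (SPAN) is normalized to fingolimod.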
Target sequence in this assay (P21453 whole entry, looked up, the tested form may be a part): as the sequence (P21453 whole entry, looked up, the tested form may be a part) above
For orientation: cAMP levels reflect the balance of adenylyl cyclase and phosphodiesterase activity.

Setting [3] is: β-arrestin2 recruitment, S1P1 CHO-K1 cells.
[4] abbreviates: inhibition of cAMP production, S1P1 CHO-K1 cells.

`CC(C)n1nnc2cc(-c3nc4c(Cl)cccc4o3)ccc21` [Compound 427, 4-chloro-2-(1-isopropyl-1H-benzo[d][1,2,3]triazol-5-yl)benzo[d]oxazole]: the Emax in experiment [1] and in experiment [2] was above 75% in each case. The “hS1P1 B-arrestin2 pEC50” value in experiment [1] (setting [3]) is recorded as below 5. In addition, the “hS1P1 cAMP pEC50” value in experiment [2] (setting [4]) is given as below 6.5.
`Cc1cccc2nc(-c3ccc4c(c3)nnn4C(C)C)oc12` [Compound 421, 2-(1-isopropyl-1H-benzo[d][1,2,3]triazol-5-yl)-7-methylbenzo[d]oxazole]: the Emax in experiment [1] was below 75%; in experiment [2], above 75%. Besides, in experiment [1] (setting [3]), the “hS1P1 B-arrestin2 pEC50” value was below 5. Besides, the “hS1P1 cAMP pEC50” value in experiment [2] (setting [4]) was below 6.5.
Take `CC(C)n1nnc2cc(-c3nc(-c4ccc5nncn5c4)no3)ccc21` [Compound 128, 1-(propan-2-yl)-5-(3-{[1,2,4]triazolo[4,3-a]pyridin-6-yl}-1,2,4-oxadiazol-5-yl)-1H-1,2,3-benzotriazole]: the Emax in experiment [1] and in experiment [2] was below 75% each time. The “hS1P1 B-arrestin2 pEC50” value in experiment [1] (setting [3]) was below 5. The “hS1P1 cAMP pEC50” value in experiment [2] (setting [4]) is recorded as below 6.5.
In the case of `COc1ccccc1-c1csc(-c2ccc3c(ccn3C(C)C)n2)n1` [Compound 411, 2-(1-isopropyl-1H-pyrrolo[3,2-b]pyridin-5-yl)-4-(2-methoxyphenyl)thiazole], in experiment [1] (setting [3]), the “hS1P1 B-arrestin2 pEC50” value is given as below 5. Besides, the “hS1P1 cAMP pEC50” value in experiment [2] (setting [4]) was below 6.5.
In the same order, the values of `CCCC1CC(=O)c2ccc(-c3nc(-c4cccnc4)no3)cc2O1` (stereo not shown) [Compound 630, 2-propyl-7-[3-(pyridin-3-yl)-1,2,4-oxadiazol-5-yl]-3,4-dihydro-2H-1-benzopyran-4-one] are below 5 and below 6.5.
Turning to `CC(C)n1ccc2cc(-c3nc(-c4ccccc4OC(F)(F)F)no3)ccc21` [Compound 321, 5-(1-isopropyl-1H-indol-5-yl)-3-(2-(trifluoromethoxy)phenyl)-1,2,4-oxadiazole], the Emax in experiment [1] is below 75%; in experiment [2] it was above 75%. Also, in experiment [1] (setting [3]), the “hS1P1 B-arrestin2 pEC50” value is above 5. Moreover, the “hS1P1 cAMP pEC50” value in experiment [2] (setting [4]) is reported as below 6.5.
Consider `CC(C)n1ccc2cc(-c3noc(-c4ccc(F)cc4)n3)ccc21` [Compound 400, 5-(4-fluorophenyl)-3-(1-isopropyl-1H-indol-5-yl)-1,2,4-oxadiazole], for which the “hS1P1 B-arrestin2 pEC50” value in experiment [1] (setting [3]) was below 5. Moreover, in experiment [2] (setting [4]), the “hS1P1 cAMP pEC50” value is listed as below 6.5.
On the same counts, the results for `CC(C)n1ccc2cc(-c3nc(-c4ccccc4C(F)(F)F)cs3)cnc21` [Compound 408, 2-(1-isopropylpyrrolo[2,3-b]pyridin-5-yl)-4-[2-(trifluoromethyl)phenyl]thiazole] are below 5 and below 6.5.
On to `Cc1ccccc1Cc1noc(-c2ccc3c(c2)nnn3C(C)C)n1` [Compound 202, 5-{3-[(2-methylphenyl)methyl]-1,2,4-oxadiazol-5-yl}-1-(propan-2-yl)-1H-1,2,3-benzotriazole], for which the Emax in experiment [1] and in experiment [2] was below 75% in each case. For the same compound, the “hS1P1 B-arrestin2 pEC50” value in experiment [1] (setting [3]) was below 5. For the same compound, the “hS1P1 cAMP pEC50” value in experiment [2] (setting [4]) was below 6.5.
Consider `CC(C)n1ccc2cc(-c3noc(-c4ccncc4F)n3)ccc21` [Compound 399, 5-(3-fluoropyridin-4-yl)-3-(1-isopropyl-1H-indol-5-yl)-1,2,4-oxadiazole], for which the “hS1P1 B-arrestin2 pEC50” value in experiment [1] (setting [3]) is above 5. In addition, the “hS1P1 cAMP pEC50” value in experiment [2] (setting [4]) was above 6.5.
As for `CCC1(CC)CC(=O)c2cc(-c3nsc(-c4ccc5c(c4)nnn5C(C)C)n3)ccc2O1` [Compound 143, 2,2-diethyl-6-(5-(1-isopropyl-1H-benzo[d][1,2,3]triazol-5-yl)-1,2,4-thiadiazol-3-yl)chroman-4-one], the Emax in experiment [1] and in experiment [2] was below 75% each time. Further, the “hS1P1 B-arrestin2 pEC50” value in experiment [1] (setting [3]) was below 5. The “hS1P1 cAMP pEC50” value in experiment [2] (setting [4]) is listed as below 6.5.
Turning to `CC(C)Oc1ccc(-c2noc(-c3ccc4c(c3)nnn4C(C)C)n2)cc1C(F)(F)F` [Compound 20, 3-(4-isopropoxy-3-(trifluoromethyl)phenyl)-5-(1-isopropyl-1H-benzo[d][1,2,3]triazol-5-yl)-1,2,4-oxadiazole], in experiment [1] (setting [3]), the “hS1P1 B-arrestin2 pEC50” value is reported as above 5. The “hS1P1 cAMP pEC50” value in experiment [2] (setting [4]) is above 6.5.
With `Cc1ccccc1-c1coc(-c2ccc3c(c2)nnn3C(C)C)n1` [Compound 433, 5-[4-(2-methylphenyl)-1,3-oxazol-2-yl]-1-(propan-2-yl)-1H-1,2,3-benzotriazole], the Emax in experiment [1] and in experiment [2] was above 75% throughout. Besides, the “hS1P1 B-arrestin2 pEC50” value in experiment [1] (setting [3]) is above 5. Also, in experiment [2] (setting [4]), the “hS1P1 cAMP pEC50” value is reported as above 6.5.
As for `Cc1cncc(-c2nc(-c3ccc4c(c3)nnn4C(C)C)no2)n1` [Compound 229, 3-(1-isopropyl-1H-benzo[d][1,2,3]triazol-5-yl)-5-(6-methylpyrazin-2-yl)-1,2,4-oxadiazole], the “hS1P1 B-arrestin2 pEC50” value in experiment [1] (setting [3]) was above 5. For the same compound, the “hS1P1 cAMP pEC50” value in experiment [2] (setting [4]) is below 6.5.
With `N#Cc1cc(-c2nnc(-c3ccc4[nH]ncc4c3)o2)ccc1NCC1CC1` [Compound 352, 2-[(cyclopropylmethyl)amino]-5-[5-(1H-indazol-5-yl)-1,3,4-oxadiazol-2-yl]benzonitrile], the Emax in experiment [1] and in experiment [2] was above 75% throughout. In experiment [1] (setting [3]), the “hS1P1 B-arrestin2 pEC50” value is above 5. Moreover, the “hS1P1 cAMP pEC50” value in experiment [2] (setting [4]) is above 6.5.
Take `CC(C)n1nnc2cc(-c3nc(-c4ccc5ccccc5n4)no3)ccc21` [Compound 168, 2-{5-[1-(propan-2-yl)-1H-1,2,3-benzotriazol-5-yl]-1,2,4-oxadiazol-3-yl}quinoline]: the Emax in experiment [1] and in experiment [2] was below 75% throughout. Moreover, the “hS1P1 B-arrestin2 pEC50” value in experiment [1] (setting [3]) is below 5. The “hS1P1 cAMP pEC50” value in experiment [2] (setting [4]) is reported as below 6.5.
For the compound `COC(=O)C12C3C4C1C1C2C3C41c1nc(-c2ccc3c(c2)nnn3C(C)C)no1` (stereo not shown) [Compound 378], the Emax in experiment [1] and in experiment [2] was below 75% in each case. Also, the EC50 in experiment [1] (β-arrestin2 recruitment, S1P1 CHO-K1 cells, read-out: hS1P1 B-arrestin2 pEC50 (converted)) was above 10 µM; in experiment [2] (inhibition of cAMP production, S1P1 CHO-K1 cells, read-out: hS1P1 cAMP pEC50 (converted)), above 0.316 µM.
Take `COc1ccc(-c2nc(-c3ccc4c(c3)nnn4C(C)C)no2)c(C)c1` [Compound 90, 3-(1-isopropyl-1H-benzo[d][1,2,3]triazol-5-yl)-5-(4-methoxy-2-methylphenyl)-1,2,4-oxadiazole]: the Emax in experiment [1] and in experiment [2] was above 75% each time. In addition, in experiment [1] (setting [3]), the “hS1P1 B-arrestin2 pEC50” value is above 5. Further, the “hS1P1 cAMP pEC50” value in experiment [2] (setting [4]) is below 6.5.
On to `CC(C)Nc1ccc(-c2nnc(-c3ccc4c(c3)ncn4CCO)o2)cc1C#N` [Compound 574, 5-{5-[1-(2-hydroxyethyl)-1H-1,3-benzodiazol-5-yl]-1,3,4-oxadiazol-2-yl}-2-[(propan-2-yl)amino]benzonitrile], for which the “hS1P1 B-arrestin2 pEC50” value in experiment [1] (setting [3]) is recorded as below 5. For the same compound, the “hS1P1 cAMP pEC50” value in experiment [2] (setting [4]) is on record as below 6.5.
Regarding `CC(C)n1nnc2cc(-c3noc(-c4cnccn4)n3)ccc21` [Compound 78, 3-(1-isopropyl-1H-benzo[d][1,2,3]triazol-5-yl)-5-(pyrazin-2-yl)-1,2,4-oxadiazole], the Emax in experiment [1] and in experiment [2] was below 75% in each case. The “hS1P1 B-arrestin2 pEC50” value in experiment [1] (setting [3]) is reported as below 5. Besides, the “hS1P1 cAMP pEC50” value in experiment [2] (setting [4]) is listed as below 6.5.
On to `COc1ccccc1-c1cnc(-c2ccc3c(c2)nnn3C(C)C)nc1` [Compound 565, 1-isopropyl-5-(5-(2-methoxyphenyl)pyrimidin-2-yl)-1H-benzo[d][1,2,3]triazole], for which the “hS1P1 B-arrestin2 pEC50” value in experiment [1] (setting [3]) is above 5. Further, in experiment [2] (setting [4]), the “hS1P1 cAMP pEC50” value was above 6.5.
On the same counts, the results for `CC(C)n1ccc2cc(-c3noc(-c4cccnc4)n3)ccc21` [Compound 396, 3-(1-isopropyl-1H-indol-5-yl)-5-(pyridin-3-yl)-1,2,4-oxadiazole] are below 5 and below 6.5.
As to `CC(C)n1nnc2cc(-c3nc(-c4ccc(Cl)s4)no3)ccc21` [Compound 170, 5-[3-(5-chlorothiophen-2-yl)-1,2,4-oxadiazol-5-yl]-1-(propan-2-yl)-1H-1,2,3-benzotriazole], the Emax in experiment [1] and in experiment [2] was below 75% each time. Besides, the “hS1P1 B-arrestin2 pEC50” value in experiment [1] (setting [3]) was below 5. For the same compound, in experiment [2] (setting [4]), the “hS1P1 cAMP pEC50” value was below 6.5.
With `CCC1(CC)CC(=O)c2cc(-c3ncc(-c4ccccn4)cn3)ccc2O1` [Compound 530, 2,2-diethyl-6-(5-(pyridin-2-yl)pyrimidin-2-yl)chroman-4-one], the “hS1P1 B-arrestin2 pEC50” value in experiment [1] (setting [3]) is recorded as below 5. For the same compound, the “hS1P1 cAMP pEC50” value in experiment [2] (setting [4]) is on record as below 6.5.
`O=C1CC2(CCCCC2)Oc2ccc(-c3nc(-c4ccncc4)no3)cc21` [Compound 280, 6-[3-(pyridin-4-yl)-1,2,4-oxadiazol-5-yl]-3,4-dihydrospiro[1-benzopyran-2,1′-cyclohexane]-4-one]: the Emax in experiment [1] and in experiment [2] was below 75% throughout. For the same compound, the “hS1P1 B-arrestin2 pEC50” value in experiment [1] (setting [3]) was below 5. In experiment [2] (setting [4]), the “hS1P1 cAMP pEC50” value is below 6.5.
Take `Clc1ncccc1-c1noc(-c2ccc3c(c2)nnn3CC2CC2)n1` [Compound 199, 5-[3-(2-chloropyridin-3-yl)-1,2,4-oxadiazol-5-yl]-1-(cyclopropylmethyl)-1H-1,2,3-benzotriazole]: the Emax in experiment [1] and in experiment [2] was below 75% throughout. The “hS1P1 B-arrestin2 pEC50” value in experiment [1] (setting [3]) was below 5. In experiment [2] (setting [4]), the “hS1P1 cAMP pEC50” value is below 6.5.

Source of the values: patent publication US11912693B2, “Compounds for modulating S1P1 activity and methods of using the same” (TREVENA, INC., priority 2017, dated 2024).
